Test results reported in patent US8518953B2, “Aminopyrimidines useful as inhibitors of protein kinases” (Vertex Pharmaceuticals Incorporated, priority 2007, dated 2013).

Key:
rats subjected to MCAO = assay: Post Stroke Recovery MCAO Model: Tray Reaching; type: in vivo, rat; settings: 7 and 14 days after stroke, compared with vehicle treatment
Excerpt: Adult male Wistar rats are pre-trained on a battery of behavioral tests including: tray reach, gridwalk, forelimb asymmetry (cylinder bracing), forelimb inhibition (swim test) (see below for detailed description of tests). Following pre-stroke behavioral assessment the rats receive surgery during which a stroke is induced. The rats are pseudo-randomly divided into 5 equal groups (n=12) ensuring an equal number of right and left strokes within each treatment group. The first group receives sham surgery with vehicle as treatment. Administration of the test compound and vehicle (dose, route, timing) is determined by the sponsor. The core body temperature is maintained at 37° C. (+/−1°).
Following surgery all animals are behaviorally assessed 1, 7, and 14 d post-stroke. At the conclusion of behavioral assessment all rats undergo an MRI to determine infarct volume. […]
Each animal is weighed (average weights were 340 g) and then anesthetized with isoflurane (4% isoflurane carried on 2 l/min medical grade oxygen to induce surgical plane and then 2% with 2 l/min oxygen to maintain a surgical plane). […] Rectal temperature is monitored and maintained at 37 C+/−1° C. for the duration of the surgery and until the rat is awake and mobile (approximately 3 hr). […]
Forepaw use is measured with a procedure that is adapted from the method devised by Whishaw, O'Connor, and Dunnett (1986). […]

GSK-3β (AA 1-420) = molecular target: T1, GSK-3β (AA 1-420) (Homo sapiens, UniProt P49841); assay: GSK-3 Inhibition Assay (standard coupled enzyme system); type: biochemical; settings: 20 μM ATP, 300 μM peptide, 20 nM GSK-3β, 30° C.
T1 construct: GSK-3β (AA 1-420)
T1 sequence (P49841 whole entry, species assumed, the tested form may be a part): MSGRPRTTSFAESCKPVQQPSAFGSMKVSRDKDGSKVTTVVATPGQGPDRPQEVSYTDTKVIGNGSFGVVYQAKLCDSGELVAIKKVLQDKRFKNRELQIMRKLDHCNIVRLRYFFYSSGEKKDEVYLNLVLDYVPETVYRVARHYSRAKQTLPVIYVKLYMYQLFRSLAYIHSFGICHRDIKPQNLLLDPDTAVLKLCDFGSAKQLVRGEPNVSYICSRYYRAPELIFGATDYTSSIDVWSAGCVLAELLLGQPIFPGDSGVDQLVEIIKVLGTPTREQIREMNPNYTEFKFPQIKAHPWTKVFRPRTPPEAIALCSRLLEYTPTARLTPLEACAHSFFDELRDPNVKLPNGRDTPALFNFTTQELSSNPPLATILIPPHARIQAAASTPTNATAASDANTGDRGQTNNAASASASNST
Method: Compounds of the present invention were screened for their ability to inhibit GSK-3β (AA 1-420) activity using a standard coupled enzyme system (Fox et al., Protein Sci. 1998, 7, 2249). Reactions were carried out in a solution containing 100 mM HEPES (pH 7.5), 10 mM MgCl2, 25 mM NaCl, 300 μM NADH, 1 mM DTT and 1.5% DMSO. Final substrate concentrations in the assay were 20 μM ATP (Sigma Chemicals, St Louis, Mo.) and 300 μM peptide (American Peptide, Sunnyvale, Calif.). Reactions were carried out at 30° C. and 20 nM GSK-3β. Final concentrations of the components of the coupled enzyme system were 2.5 mM phosphoenolpyruvate, 300 μM NADH, 30 μg/ml pyruvate kinase and 10 μg/ml lactate dehydrogenase.
An assay stock buffer solution was prepared containing all of the reagents listed above with the exception of ATP and the test compound of the present invention. The assay stock buffer solution (175 μl) was incubated in a 96 well plate with 5 μl of the test compound of the present invention at final concentrations spanning 0.002 μM to 30 μM at 30° C. for 10 min. […] Rates of reaction were obtained using a Molecular Devices Spectramax plate reader (Sunnyvale, Calif.) over 10 min at 30° C. The Ki values were determined from the rate data as a function of inhibitor concentration.

Which “deficit in reaching performance (tray reaching)” value (rats subjected to MCAO) does the source give for Cc1nc(-c2ccccc2Cl)nc(Nc2n[nH]c3ncc(F)cc23)c1C [Compound I-1, N-(2-(2-chlorophenyl)-5,6-dimethylpyrimidin-4-yl)-5-fluoro-1H-pyrazolo[3,4-b]pyridin-3-amine] here?
Its value is “significantly ameliorated this deficit”.

What about the Ki (GSK-3β (AA 1-420)) of the same compound?
The Ki was less than 5 nM.
